# From US12378220B2, “WNT signaling pathway inhibitors for treatments of disease” (University of Maryland, Baltimore, priority 2016, dated 2025)
# Read-outs that look alike come from different tables or passages of the source.
# How the values were obtained:
# [1] = tested on: WiDr, SW620, HT29, HEK_LTV, and T84 cell lines; test: cell proliferation and growth inhibition assay (CCK-8), cell line panel; assay type: cell-based, human; settings: 72 h, FIG. 12
# Procedure: Cell Proliferation and Growth Inhibition Assay. HT-29, HCT-116, WiDr, SW620, SW480, T84, A549, MCF-7, HepG2, Hela cells were cultured in respective growth medium. Cells of log phase were used. 3000-5000 cells/well were seeded in 96-well plates with a 100 μL volume. After 24 h, Compounds were dissolved to […] with DMSO, and a 3-fold serial dilution of the compounds from 5×10^−5 M to […] was performed. 2 μL of compound solution was added to 998 μL of growth medium, the mixture was vortexed sufficiently. 100 μL of the mixture was correspondingly added to the 96-well plate. 2 μL DMSO instead of compound solution was used as the 0% inhibitor control. After coincubation for 72 h, the old medium was removed and 100 μL of 10% CCK-8 in culture medium was added. 2 h later the plates were read in the microplate reader (Bio-Rad) at 450 nm. The data was calculated using Graph Pad Prism version 5.0. The IC50 were fitted using a nonlinear regression model with a sigmoidal dose response.
# HepG2 cells [2] = test: glucose production, G6P expression and AMPK phosphorylation; assay type: cell-based, human
# HepG2 cells [3] = test: expression of Wnt pathway proteins; assay type: cell-based, human; settings: FIG. 3
# Procedure: HepG2 cells were treated by YW1149 (vehicle, 0.1, 1 μM).
# [4] = tested on: C57BL/6 mice on high-fat diet; settings: intraperitoneal
# Excerpt: C57BL/6 mice (n=6/group) were put either on high-fat (HF) or normal chow (NC) diet.
# [5] = tested on: C57BL/6 mice on Western high-fat diet; test: YW1128 on high-fat diet-induced steatosis, liver protein analysis; assay type: in vivo; settings: I.P. 40 mg/kg/2 days, 11 weeks
# Excerpt: FIGS. 36A to 36D illustrate the effect of YW1128 on a high-fat diet (HFD)-induced steatosis. FIG. 36A illustrates representative liver histology by H&E staining. FIG. 36B illustrates an intraperitoneal glucose tolerance test (IPGTT) performed at the end of a study. FIG. 36C illustrates body weight monitoring performed during the treatment.
# C57BL/6 mice (n=7/group) were put on a Western high-fat diet (HFD) or normal chow diet (NCD). Seven weeks later, the mice received either vehicle or YW1128 by I.P., 40 mg/kg/2 days, for 11 weeks. Representative liver histology was measured by H&E staining (FIG. 36A). An intraperitoneal glucose tolerance test (IPGTT) was conducted at the end of the study (FIG. 36B). Body weight for the mice was monitored during the treatment (FIG. 36C).
# Wnt/β-catenin pathway = test: dual-luciferase TCF/LEF reporter assay, LiCl-activated, HEK293 cells; assay type: cell-based; settings: Homo sapiens; for activity at 1 µM: HEK293, 24 h, At 1 μM concentration, remaining Wnt signaling activity, read-out: RLU % (Relative Light Units in reporter gene assays); for IC50: HEK293, read-out: IC50
# Procedure: Lithium chloride (LiCl), which has been previously established as an activator of the Wnt/β-catenin pathway through its direct and indirect effects on GSK3β was used for pathway activation. The inhibition of the Wnt/β-catenin pathway by a compound may be determined after its incubation with cells for 24 hours.
# The assay provided herein is a dual-luciferase assay to measure Wnt/β-catenin pathway activation using a TCF/LEF responsive reporter construct similar to that described previously (Thorne et al., 2010).
# [6] = tested on: C57BL/6 mice on high-fat diet; test: YW1128 in high-fat diet mice (liver histology, IPGTT, body weight); assay type: in vivo
# Procedure: Mice were treated with YW1128 and representative liver histology was observed through H&E staining. C57BL/6 mice were placed on a high-fat diet. Seven weeks later (week 0), the mice received either vehicle or YW1128 by IP injection for 11 weeks. Regarding treatment with YW1128, the mice were initially treated at a dose of 10 mg/kg/2 days, which was increased to 40 mg/kg/2 days from week 8. The mice were then euthanized at the end of 11 weeks. Liver histology for vehicle (FIGS. 33A and 33B) and YW1128 (FIGS. 33C and 33D) was examined by H&E staining.
# An intraperitoneal glucose tolerance test (IPGTT) was conducted on high-fat diet (HFD) groups at the end of the study. C57BL/6 mice (n=3-4 per group) were put on a high fat diet. Seven weeks later (week 0), the mice received either vehicle or YW1128 by IP injection for 11 weeks. Regarding the treatment with YW1128, the mice were initially treated at a dose of 10 mg/kg/2 days, which was increased to 40 mg/kg/2 days from week 8. FIG. 34A describes the glucose levels at up to 120 minutes post-injection at week 0. FIG. 34B describes the glucose levels at up to 120 minutes post-injection at week 11, where *P<0.05 and **P<0.01, compared to the […].
# The effect of YW1128 on body weight was also observed in mice having normal diets (NC) and those having high-fat (HF) diets. C57BL/6 mice (n=3-4 per group) were put on either an HF diet or an NC diet. Seven weeks later, the mice received either YW1128 or vehicle by IP injection. Regarding the treatment with YW1128, the mice were treated at a dose of 40 mg/kg/2 days for seven weeks. The results of such study are shown in FIG. 35, where *P<0.05 for the comparison between HF-vehicle and the other three groups.
# [7] = HepG2, 0.1 μM pyrvinium, 10 μM YW1149
# [8] = high-fat diet mice, IP injection
Compound,activity at 1 µM (Wnt/β-catenin pathway),"IC50 (Wnt/β-catenin pathway; Table 3, values in nM)",further results
1-(2-Fluorophenyl)-5-methyl-N-(quinolin-2-yl)-1H-pyrazole-4-carboxamide [YW2035],,,growth inhibitory activity [1]: micromolar growth inhibitory activity
"Cc1cc(/C=C/c2ccc3cc(N(C)C)ccc3[n+]2C)c(C)n1-c1ccccc1 [Pyrvinium, pyrvinium, reference compound]",,,expression of glucose 6-phosphatase (G6P) (HepG2 cells [2]; [7]): significantly suppress; glucose production (HepG2 cells [2]; [7]): significantly suppress; phosphorylation of AMPK (HepG2 cells [2]; HepG2 cells): increase phosphorylation; Axin protein expression (HepG2 cells [3]): increased; β-catenin and target gene c-Myc protein (HepG2 cells [3]): attenuation; weight gain [4]: decrease weight gain
"Cc1ccccc1-n1nnc(C(=O)Nc2ccc3ccccc3n2)c1C [YW1128, 5-Methyl-N-(quinolin-2-yl)-1-(o-tolyl)-1H-1,2,3-triazole-4-carboxamide]",3.7%,7.7 nM,"CK1a in liver [5]: did not show any significant change; phosphorylation of AMPKα1 at threonine 172 (p-AMPKα) in liver ([5]; vs vehicle-treated livers, 40 mg/kg): increased phosphorylation; growth inhibitory activity [1]: micromolar growth inhibitory activity; liver histology (H&E), fatty liver disease ([6]; high-fat diet mice, IP 11 weeks): did not exhibit any histology of fatty liver disease; body weight gain [6, 8]: decrease body weight gain; glucose tolerance (IPGTT) [6, 8]: significantly improve glucose tolerance; toxicity of subchronic treatment ([6]; mice, IP, up to 40 mg/kg/2 days): did not cause any obvious toxicity"
"Cc1ccccc1-n1nnc(C(=O)Nc2ccc3ccccc3c2)c1C [YW1130, 5-Methyl-N-(naphthalen-2-yl)-1-(o-tolyl)-1H-1,2,3-triazole-4-carboxamide]",19.7%,471 nM,
"Cc1ccccc1-n1nnc(C(=O)Nc2nc3ccccc3s2)c1C [YW1132, N-(benzo[d]thiazol-2-yl)-5-methyl-1-(o-tolyl)-1H-1,2,3-triazole-4-carboxamide]",4.9%,34 nM,
"Cc1ccc(-n2nnc(C(=O)Nc3cccc(C)n3)c2C)cc1 [YW1134, 5-Methyl-N-(6-methylpyridin-2-yl)-1-(p-tolyl)-1H-1,2,3-triazole-4-carboxamide]",79.5%,273 nM,
"Cc1c(C(=O)Nc2ccc3ccccc3n2)nnn1-c1cccc2ccccc12 [YW1151, 5-Methyl-1-(naphthalen-1-yl)-N-(quinolin-2-yl)-1H-1,2,3-triazole-4-carboxamide]",79.3%,,"IC50 (Wnt/β-catenin pathway; Table 3, values in μM): 4000 nM"
"Cc1c(C(=O)Nc2ccc3ccccc3n2)nnn1-c1ccccc1N1CCOCC1 [YW1155, 5-Methyl-1-(2-morpholinophenyl)-N-(quinolin-2-yl)-1H-1,2,3-triazole-4-carboxamide]",99.8%,,
"Cc1c(C(=O)Nc2ccc3ccccc3n2)nnn1-c1ccccc1C#N [YW1157, 1-(2-Cyanophenyl)-5-methyl-N-(quinolin-2-yl)-1H-1,2,3-triazole-4-carboxamide]",6.5%,76 nM,
"Cc1c(C(=O)Nc2ccc3ccccc3n2)nnn1-c1ccccc1F [YW1159, 1-(2-Fluorophenyl)-5-methyl-N-(quinolin-2-yl)-1H-1,2,3-triazole-4-carboxamide]",1.4%,6.5 nM,
"Cc1c(C(=O)Nc2ccc3ccccc3n2)nnn1-c1ccccc1Br [YW1169, 1-(2-Bromophenyl)-5-methyl-N-(quinolin-2-yl)-1H-1,2,3-triazole-4-carboxamide]",3.2%,10 nM,
"Cc1cccc(-n2nnc(C(=O)Nc3ccc4ccccc4n3)c2C)c1C [YW1170, 1-(2,3-Dimethylphenyl)-5-methyl-N-(quinolin-2-yl)-1H-1,2,3-triazole-4-carboxamide]",17.8%,567 nM,
"Cc1c(C(=O)Nc2ccc3ccccc3n2)nnn1-c1ccc(F)cc1[N+](=O)[O-] [YW1171, 1-(4-Fluoro-2-nitrophenyl)-5-methyl-N-(quinolin-2-yl)-1H-1,2,3-triazole-4-carboxamide]",77.8%,,"IC50 (Wnt/β-catenin pathway; Table 3, values in μM): 5000 nM"
"Cc1c(C(=O)Nc2ccc3ccccc3n2)nnn1-c1cccc(Cl)c1 [YW1173, 1-(3-Chlorophenyl)-5-methyl-N-(quinolin-2-yl)-1H-1,2,3-triazole-4-carboxamide]",26.3%,731 nM,
"Cc1ccc(-n2nnc(C(=O)Nc3ccc4ccccc4n3)c2C)c(C)c1 [YW1179, 1-(2,4-Dimethylphenyl)-5-methyl-N-(quinolin-2-yl)-1H-1,2,3-triazole-4-carboxamide]",10.6%,130 nM,
"Cc1c(C(=O)Nc2ccc3ccccc3n2)nnn1-c1ccccc1-c1ccccc1 [YW1180, 1-([1,1′-biphenyl]-2-yl)-5-methyl-N-(quinolin-2-yl)-1H-1,2,3-triazole-4-carboxamide]",104%,,"IC50 (Wnt/β-catenin pathway; Table 3, values in μM): 52000 nM"
"CC(=O)c1ccccc1-n1nnc(C(=O)Nc2ccc3ccccc3n2)c1C [YW1181, 1-(2-Acetylphenyl)-5-methyl-N-(quinolin-2-yl)-1H-1,2,3-triazole-4-carboxamide]",18.1%,814 nM,
"Cc1c(C(=O)Nc2ccc3ccccc3n2)nnn1-c1ccccc1C(N)=O [YW1182, 1-(2-Carbamoylphenyl)-5-methyl-N-(quinolin-2-yl)-1H-1,2,3-triazole-4-carboxamide]",89.9%,,"IC50 (Wnt/β-catenin pathway; Table 3, values in μM): > 100000 nM"
"Cc1ccccc1-n1nnc(C(=O)Nc2nc(-c3ccccc3)cs2)c1C [YW1183, 5-Methyl-N-(4-phenylthiazol-2-yl)-1-(o-tolyl)-1H-1,2,3-triazole-4-carboxamide]",90.8%,,"IC50 (Wnt/β-catenin pathway; Table 3, values in μM): 22000 nM"
"CCc1c(C(=O)Nc2ccc3ccccc3n2)nnn1-c1ccccc1F [YW2018, 5-Ethyl-1-(2-fluorophenyl)-N-(quinolin-2-yl)-1H-1,2,3-triazole-4-carboxamide]",2.3%,47 nM,
"CC(C)c1c(C(=O)Nc2ccc3ccccc3n2)nnn1-c1ccccc1F [YW2020, 1-(2-Fluorophenyl)-5-isopropyl-N-(quinolin-2-yl)-1H-1,2,3-triazole-4-carboxamide]",17.7%,177 nM,
"Cc1c(C(=O)Nc2ccc3ccccc3n2)cnn1C(C)(C)C [YW2049, 1-(Tert-butyl)-5-methyl-N-(quinolin-2-yl)-1H-pyrazole-4-carboxamide]",,,growth inhibitory activity [1]: micromolar growth inhibitory activity
